Source: ChEMBL document CHEMBL5108088, “N-Methylamide-structured SB366791 derivatives with high TRPV1 antagonistic activity: toward PET radiotracers to visualize TRPV1” (RSC Med Chem, 2022)

Legend:
[1] = target: Transient receptor potential cation channel subfamily V member 1 (Rattus norvegicus, UniProt O35433); experiment: Antagonist activity at rat TRPV1 expressed in human HEK293 cells assessed as inhibition of capsaicin-induced influx by measuring intracellular calcium accumulation by fura-2 dye based fluorimetric assay; format: cell-based
[2] = Drug uptake in iv dosed Sprague-Dawley rat brain hypothalamus assessed as high radioactivity in hypothalamus and measured upto 60 mins by PET imaging analysis; format: ADME, organism-based; settings: in vivo, 1 h
[3] = Drug uptake in iv dosed Sprague-Dawley rat urinary bladder assessed as high radioactivity in urinary bladder and measured upto 60 mins by PET imaging analysis; format: ADME, organism-based; settings: in vivo, 1 h
[4] = Drug uptake in iv dosed Sprague-Dawley rat liver assessed as high radioactivity in liver and measured upto 60 mins by PET imaging analysis; format: ADME, organism-based; settings: in vivo, 1 h
[5] = Drug uptake in iv dosed Sprague-Dawley rat brain striatum assessed as high radioactivity in striatum and measured upto 60 mins by PET imaging analysis; format: ADME, organism-based; settings: in vivo, 1 h
[6] = Drug uptake in iv dosed Sprague-Dawley rat brain thalamus assessed as high radioactivity and measured upto 60 mins by PET imaging analysis; format: ADME, organism-based; settings: in vivo, 1 h
[7] = Drug uptake in iv dosed Sprague-Dawley rat gastrointestinal tract assessed as high radioactivity in gastrointestinal tract and measured upto 60 mins by PET imaging analysis; format: ADME, organism-based; settings: in vivo, 1 h
[8] = Drug uptake in iv dosed Sprague-Dawley rat brain assessed as high radioactivity in brain cortical area and measured upto 60 mins by PET imaging analysis; format: ADME, organism-based; settings: in vivo, 1 h
[9] = Drug uptake in iv dosed Sprague-Dawley rat brain medulla oblongata assessed as high radioactivity in medulla oblongata and measured upto 60 mins by PET imaging analysis; format: ADME, organism-based; settings: in vivo, 1 h
[10] = Drug uptake in iv dosed Sprague-Dawley rat skin assessed as high radioactivity in body surface and measured upto 60 mins by PET imaging analysis; format: ADME, organism-based, Skin of body; settings: in vivo, 1 h
[11] = Drug uptake in iv dosed Sprague-Dawley rat brain cerebellum assessed as high radioactivity in brain cerebellum and measured upto 60 mins by PET imaging analysis; format: ADME, organism-based; settings: in vivo, 1 h

Transient receptor potential cation channel subfamily V member 1, sequence (O35433 whole entry): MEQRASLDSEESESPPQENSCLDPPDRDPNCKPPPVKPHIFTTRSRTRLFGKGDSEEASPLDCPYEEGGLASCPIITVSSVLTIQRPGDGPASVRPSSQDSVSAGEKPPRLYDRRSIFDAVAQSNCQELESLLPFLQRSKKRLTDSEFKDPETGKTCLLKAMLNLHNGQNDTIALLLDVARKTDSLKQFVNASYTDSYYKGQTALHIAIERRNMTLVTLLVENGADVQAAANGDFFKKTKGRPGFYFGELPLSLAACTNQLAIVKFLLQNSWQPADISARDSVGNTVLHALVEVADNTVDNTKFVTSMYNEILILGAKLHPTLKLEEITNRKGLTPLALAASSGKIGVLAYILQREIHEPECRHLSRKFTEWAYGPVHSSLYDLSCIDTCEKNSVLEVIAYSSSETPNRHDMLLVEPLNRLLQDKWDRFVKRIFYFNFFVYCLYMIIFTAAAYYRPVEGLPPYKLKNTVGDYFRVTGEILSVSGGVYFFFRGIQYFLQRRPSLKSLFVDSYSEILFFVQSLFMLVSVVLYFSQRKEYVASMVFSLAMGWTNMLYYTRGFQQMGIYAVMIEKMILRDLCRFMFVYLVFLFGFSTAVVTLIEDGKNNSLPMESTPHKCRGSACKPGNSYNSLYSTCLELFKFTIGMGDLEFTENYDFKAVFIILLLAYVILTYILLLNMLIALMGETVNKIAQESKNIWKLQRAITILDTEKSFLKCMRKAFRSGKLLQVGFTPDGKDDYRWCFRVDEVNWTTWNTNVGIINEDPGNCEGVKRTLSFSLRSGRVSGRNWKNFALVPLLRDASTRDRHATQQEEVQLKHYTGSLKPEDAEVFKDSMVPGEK

Row | SMILES | IC50 [1] | Drug uptake [2] | Drug uptake [5] | Drug uptake [6] | Drug uptake [8] | Drug uptake [9] | further results
1 | COc1cccc(N(C)C(=O)/C=C/c2ccc(Cl)cc2)c1 | 1300 nM |  |  |  |  |  | 
2 | CN(C(=O)/C=C/c1ccc(Cl)cc1)c1cccc(O[11CH3])c1 |  | Active | Active | Active | Active | Active | Drug uptake [3]: Active; Drug uptake [4]: Active; Drug uptake [7]: Active; Drug uptake [10]: Active; Drug uptake [11]: Active
3 | COc1cccc(NC(=O)/C=C/c2ccc(Cl)cc2)c1 | 3700 nM |  |  |  |  |  | 
4 | CN(C(=O)/C=C/c1ccc(Cl)cc1)c1cccc(OCCCF)c1 | 1100 nM |  |  |  |  |  | 
5 | CN(C(=O)/C=C/c1ccc(Cl)cc1)c1cccc(OCCF)c1 | 4200 nM |  |  |  |  |  | 
6 | CN(C(=O)/C=C/c1ccc(Cl)cc1)c1cccc(OCCC[18F])c1 |  | Active | Active | Active | Active | Active | 
